Test results as given in patent publication US9387204B2, “Fused bicyclic imidazoles” (BAYER INTELLECTUAL PROPERTY GmbH, priority 2007, dated 2016).

Assays:
A549 cells = experiment: Cellular proliferation/cytotoxicity assay (Alamar Blue), A549 cells; details: Homo sapiens, A549, 72 h, read-out: Anti-proliferative/Cytotoxic activity (A549 cells)
phospho-GSK3 (Ser9) = experiment: Cellular pGSK3 assay (phospho-GSK3 ELISA); type: cell-based; details: Homo sapiens, MCF7 cells, 48 h, read-out: Cellular pGSK3 pathway assay
Experimental: In order to study the cellular activity of the compounds according to the present invention, an ELISA-based assay has been established for the phosphorylated protein glycogen synthetase kinase 3 (GSK3). The assay is based on a solid phase sandwich ELISA that detects endogenous levels of phosphorylated GSK3 using a phospho-GSK3 (Ser9) specific antibody (BioSource International, Inc.; Catalog #KHO0461). After incubation with cell lysates, the coated antibody captures the phosphorylated GSK3 protein. Following extensive washing, GSK3 polyclonal antibody is added to detect the captured phospho-GSK3 protein. Secondary antibody (anti-rabbit IgG-HRP) is then used to recognize the bound detection antibody. After the second incubation and washing to remove all the excess anti-rabbit IgG-HRP, a substrate solution is added, which is acted upon by the bound enzyme to produce color. The intensity of this colored product is directly proportional to the concentration of GSK-3β [pS9] present in the original specimen.
MCF7 cells (ATCC HTB-22) were seeded into 96 well fate bottom plates at a density of 10000 cells/well. […] Cells were harvested and lysed in cell extraction buffer (10 mM Tris, pH 7.4, 100 mM NaCl, 1 mM EDTA, 1 mM EGTA, 1 mM NaF, 20 mM Na4P2O7, 2 mM Na3VO4, 1% Triton X-100, 10 vol % glycerol, 0.1 vol % SDS, 0.5 vol % deoxycholate, 1 mM phenylmethylsulfonylfluorid (PMSF)). The lysate were centrifuged for 10 min. at 4° C. and the supernatant were transferred to a new tube. 50 μl of sample diluent (standard diluent buffer, Biosource) were added and 100 μl of cell lysate transferred into the tube and vortexed. 100 μl of each diluted cell lysate were added to the appropriate ELISA well plate and incubated for 3 h at room temperature. The plates were washed 4 times with 1× wash buffer (Biosource). 50 μl of detection antibody (GSK3 (Ser9) detection antibody; BioSource) were added to each well and incubated for 30 min. at room temperature. The washing procedure was repeated between each step. 100 μl of HRP-linked secondary antibody (anti-mouse IgG HRP-linked antibody) were added to each well and incubated for 30 min. at room temperature. 100 μl of TMB substrate (0.05 vol % 3,3′,5,5′ tetramethylbenzidine, 0.1 vol % hydrogen peroxide, complex polypeptides in a buffered solution; Biosource) were added to each well and incubated for 30 min. at room temperature. Finally 100 μl of Stop solution (0.05 vol % α and β unsaturated carbonyl compound) were added to each well and the plate were shaked gently for a few seconds. The absorbance was measured at ? 450 nm (Wallac Victor2; Perkin Elmer, USA) within 30 min. after adding the stop solution.
The analysis of the data was performed using a statistical program (Excel; Microsoft, USA) and the IC50 of pGSK3 inhibition was determined.

OvCAR3 cells = experiment: Cellular proliferation/cytotoxicity assay (Alamar Blue), OvCAR3 cells; type: cell-based; details: Homo sapiens, OVCAR-3, 72 h, Alamar Blue (Resazurin), read-out: Anti-proliferative/Cytotoxic activity (OvCAR3 cells)
Excerpt: Viabilities are expressed as % values.

phospho-Akt (Ser473) = experiment: Cellular PI3K/Akt pathway assay (phospho-Akt ELISA); type: cell-based; details: Homo sapiens; MCF7 cells, β-Heregulin stimulated, 48 h, phospho-Akt1 (Ser473) ELISA
Experimental: In order to study the cellular activity of the compounds according to the present invention, an Enzyme Linked Immunosorbent Assay (ELISA)-based assay has been used specific phospho-AKT. The assay is based on a Sandwich ELISA kit (PathScan™ Phospho-Akt1 (Ser473); Cell Signaling, USA; #7160).
The ELISA Kit detects endogenous levels of phosphorylated Akt protein. A phospho-Akt (Ser473) antibody (Cell Signaling, USA; #9271) has been coated onto the microwells. After incubation with cell lysates, the coated antibody captures the phosphorylated Akt protein. Following extensive washing, Akt1 monoclonal antibody (Cell Signaling, USA; #2967) is added to detect the captured phospho-Akt1 protein. HRP-linked anti-mouse antibody (HRP: horseradish peroxidase; Cell Signaling, USA; #7076) is then used to recognize the bound detection antibody. HRP substrate (=3,3′,5,5′-tetramethylbenzidine (TMB); Cell Signaling, USA; #7160) is added to develop colour. The magnitude of optical density for this developed color is proportional to the quantity of phosphorylated Akt protein. MCF7 cells (ATCC HTB-22) are seeded into 96 well fate bottom plates at a density of 10000 cells/well. 24 hours after seeding, the cells are serum starved using low-serum medium (IMEM media including 0.1% charcoal treated FCS (FCS: fetal calf serum)). […] To stimulate Akt phosphorylation, β-Heregulin (20 ng/ml β-HRG) is added in parallel to the compounds. Wells containing unstimulated control cells (no β-Heregulin stimulation) are incubated with or without the diluted compound. Wells containing untreated control cells (no compound) are filled with medium containing 0.5% v:v DMSO and are or are not stimulated with β-Heregulin.
Cells are harvested and lysed with brief sonification in 1× cell lysis buffer (20 mM Tris (pH7.5), 150 mM NaCl, 1 mM ethylene diaminetetraacetate (EDTA), 1 mM ethylene glycolbis(2-aminoethyl)-N,N,N′,N′-tetraacetic acid (EGTA), 1 vol % Triton X-100, 2.5 mM sodium pyrophosphate, 1 mM β-glycerolphosphate, 1 mM Na3VO4, 1 μg/ml leupeptin). The lysate is centrifuged for 10 min. at 4° C. and the supernatant is transferred to a new tube. 100 μl of sample diluent (0.1 vol % Tween-20, 0.1 vol % sodium azide in phosphate buffered saline (PBS)) are added to a microcentrifuge tube and 100 μl of cell lysate are transferred into the tube and vortexed. 100 μl of each diluted cell lysate are added to the appropriate ELISA well, and incubated overnight at 4° C. The plates are washed 4 times with 1× wash buffer (1 vol % tween-20, 0.33 vol % thymol, in PBS). Next 100 μl of detection antibody (Akt1 (2H10) monoclonal detection antibody; Cell Signaling, USA; #2967) are added to each well and incubation continued for 1 h at 37° C. The washing procedure is repeated between each step. 100 μl of secondary antibody (anti-mouse IgG HRP-linked antibody; Cell Signaling, USA; #7076) are added to each well and incubated for 30 min. at 37° C. Than, 100 μl of TMB substrate (0.05% 3,3′,5,5′ tetramethylbenzidine, 0.1% hydrogen peroxide, complex polypeptides in a buffered solution; Cell Signaling, USA; #7160) are added to each well and incubated for 30 min. at 25° C. Finally 100 μl of STOP solution (0.05 vol % α and β unsaturated carbonyl compound) are added to each well and the plate are shaked gently. The absorbance is measured at ? 450 nm (Wallac Victor2; Perkin Elmer, USA) within 30 min. after adding the STOP solution. The analysis of the data is performed using a statistical program (Excel; Microsoft, USA). Preferred compounds show an inhibitory activity towards Akt phosphorylation below 10 μM.

IC50 (phospho-GSK3 (Ser9)) [µM] | IC50 (phospho-Akt (Ser473)) [µM] | Structure (SMILES) | IC50 (A549 cells) [µM] | IC50 (OvCAR3 cells) [µM]
1 to 10 | – | Fc1ccccc1-c1c(-c2ccc(CN3CCC(c4n[nH]c(-c5ccccn5)n4)CC3)cc2)nc2ncccn12 [Example 41, 3-(2-fluorophenyl)-2-(4-{[4-(5-pyridin-2-yl-1,2,4-triazol-3-yl)piperidin-1-yl]methyl}phenyl)imidazo[1,2-a]pyrimidine] | > 10 | < 10
1 to 10 | < 1 | Fc1cc(F)c2nc(-c3ccc(CN4CCC(c5nnc(-c6ccccn6)[nH]5)CC4)cc3)c(-c3ccccc3)n2c1 [Example 44, 6,8-Difluoro-3-phenyl-2-{4-[4-(5-pyridin-2-yl-4H-[1,2,4]triazol-3-yl)-piperidin-1-ylmethyl]-phenyl}-imidazo[1,2-a]pyridine] | > 10 | < 10
1 to 10 | < 1 | Cc1cn2c(-c3ccccc3)c(-c3ccc(CN4CCC(c5nnc(-c6ccccn6)[nH]5)CC4)cc3)nc2s1 [Example 46, 2-methyl-5-phenyl-6-[4-({4-[5-(pyridin-2-yl)-4H-1,2,4-triazol-3-yl]piperidin-1-yl}methyl)phenyl]imidazo[2,1-b][1,3]thiazole] | < 10 | –
> 10 | – | c1ccc(-c2nc(C3CCN(Cc4ccc(-c5nc6sccn6c5-c5nccs5)cc4)CC3)n[nH]2)nc1 [Example 42, 6-(4-{[4-(5-pyridin-2-yl-1,2,4-triazol-3-yl)piperidin-1-yl]methyl}phenyl)-5-(1,3-thiazol-2-yl)imidazo[2,1-b][1,3]thiazole] | < 10 | < 10
